Columns and labels:
CsPT1 [1] = molecular target: T1, CsPT1 (Cannabis sativa, UniProt A0A455ZIK6); test: Prenyltransferase assay of recombinant CsPT1 with different aromatic acceptor substrates, geranyl diphosphate as prenyl donor; type: biochemical; conditions: for Product yield (%): yield of prenylated products by HPLC peak area, yield of cannabigerolic acid and 5-geranyl olivetolic acid set to 100%
Experimental: (§1) The prenyltransferase assay for CsPT1 comprised 100 mM Tris-HCl (pH 7.5), 0.2 mM olivetolic acid, 1 mM geranyl diphosphate and 5 mM MgCl2 in a final volume 100 μl. The reaction was initiated by addition of a 5 μl aliquot of microsomal preparation (64 μg protein), either from insect cells or yeast. After incubation for 1 h at 37° C., the reaction was terminated by addition of 10 μl 6 N HCl and extracted twice with 200 μl of ethyl acetate. The organic phase was evaporated to dryness and the residue dissolved in 50 μl of methanol. A 20 μl aliquot was analyzed by HPLC using a Waters 2695 system equipped with photodiode array detector on a Sunfire C18 reversed phase column 3.5 μm (4.6×150 mm) at a column temperature of 30° C. The mobile phase at 1 ml/min consisted of 50% water (containing 0.1% trifluoroacetic acid [TFA] [v/v]) and 50% acetonitrile over 10 min, 50% to 100% acetonitrile over 10 min, 100% acetonitrile to 50% acetonitrile over 1 min, 50% acetonitrile and 50% water over 4 min. The products were detected at 270 nm with photodiode array detection.
The activity of the recombinant CsPT1 was assayed to determine its use of different aromatic acceptor substrates using geranyl diphosphate as the prenyl donor substrate. […] In Table 3, Product yield is the yield of prenylated products as measured by HPLC peak area with the yield of cannabigerolic acid and 5-geranyl olivetolic acid set to 100%. Phlorisovalerophenone has not been detected in cannabis. It has been shown that cannabinoids with short side-chains exist in cannabis (e.g. tetrahydrocannabivarinic acid having a propyl side-chain instead of the pentyl side-chain of THC acid (Shoyama 1984). Given that CsPT1 accepts a variety of aromatic acceptor substrates, this enzyme likely is able to prenylate analogs of olivetolic acid that have differing side-chain length.

CsPT1 [2] = molecular target: T1, CsPT1; test: Prenyltransferase assay of recombinant CsPT1 with different prenyl diphosphate donor substrates; type: biochemical; conditions: FIG. 6; n=3
Experimental: FIG. 6 depicts use of different prenyl diphosphate donor substrates by recombinant CsPT1, where DMAPP is dimethylally diphosphate, IPP is isopenetnyl diphosphate, GPP is geranyl diphosphate, NPP is neryl diphosphate, FPP is farnesyl diphosphate, and GGPP is geranylgeranyl diphosphate. Bar represents mean+/− standard deviation (n=3).
as §1, with “detection. […]” for “detection.”

SMILES	Product yield (%) (CsPT1 [1])	Geranylation of aromatic acceptor substrate by CsPT1 (CsPT1 [1])	Use as prenyl donor substrate (CsPT1 [2])
O=C(/C=C/c1ccc(O)cc1)c1c(O)cc(O)cc1O [Chalconaringenin]	0	–	–
COc1cc(-c2cc(=O)c3c(O)cc(O)cc3o2)ccc1O [Chrysoeriol]	0	–	–
CCCCCC(=O)Cc1cc(O)cc(=O)o1 [Hexanoyl triacetic acid lactone]	0	–	–
O=C(O)Cc1cc(O)ccc1O [Homogentisic acid]	0	–	–
O=c1cc(-c2ccc(O)c(O)c2)oc2cc(O)cc(O)c12 [Luteolin]	0	–	–
O=C1C[C@@H](c2ccc(O)cc2)Oc2cc(O)cc(O)c21 [Naringenin]	31	geranylated	–
CCCCCc1cc(O)cc(O)c1 [Olivetol]	30	geranylated	–
CCCCCc1cc(O)cc(O)c1C(=O)O [Olivetolic acid]	100	geranylated	–
CC(C)CC(=O)c1c(O)cc(O)cc1O [Phlorisovalerophenone]	250	geranylated	–
Oc1cc(O)cc(O)c1 [Phloroglucinol]	0	–	–
Oc1ccc(C=Cc2cc(O)cc(O)c2)cc1 [Resveratrol]	32	geranylated	–
CC(C)=CCC/C(C)=C/COP(=O)(O)OP(=O)(O)O [geranyl diphosphate]	–	–	only used geranyl diphosphate (GPP) as a prenyl donor

Reference: patent US9765308B2, “Aromatic prenyltransferase from cannabis” (priority 2009, dated 2017)
